Test results reported in US20230240297A1, “SELECTIVE HERBICIDES BASED ON SUBSTITUTED ISOXAZOLIN CARBOXAMIDES AND CYPROSULFAMIDE” (Bayer Aktiengesellschaft, priority 2020, published 2023).

How the values were obtained:
Format in all cases: in vivo, maize
ZEAMA Sileno [1] = experiment: Seed treatment with safener; post-emergence herbicide application; set-up: Reduction [Difference]: scale not given here; conditions: Final assessment; for Reduction [%] / Reduction [Difference]: Cyprosulfamide 0.5 g a.i./kg seed; for Reduction [Difference]: damage without safener - damage with safener; for HER effect + SAF (crop damage with safener): Cyprosulfamide seed treatment 0.5 g a.i./kg seed; for HER effect (crop damage, herbicide without safener): no safener
Procedure: For the safener seed treatment, sufficient seeds of the respective crops (spring wheat, TRZAS; spring barley, HORVS; maize, ZEAMA) were weighed into screw top glass bottles approximately twice the volume of the seeds.
The specified safeners, formulated as wettable powder (WP) were weighed out so that the specified rates (g a.i./kg seed) would be obtained, dissolved in water (1 ml water per 10 g of seeds), and added to the seeds to produce a slurry.
The bottles were capped and then placed in an overhead shaker (set at medium speed for ca. 60 minutes) so that the seeds were evenly coated with the slurry. The bottles were uncapped and the seeds were either placed on paper and dried for an interval of 3-4 hours prior to sowing, or directly sown. Seeds were placed in sandy loam soil in pots of a diameter of 7-8 cm, covered with soil, and cultivated in a greenhouse under good growth conditions.
Post-emergence application of the specified herbicides was done when the plants had reached growth stage BBCH11-13, on two sets of plants:
a) seed treatment with safener, as described above b) no safener treatment
The herbicides were formulated as WP and sprayed onto the green parts of the plants as an aqueous suspension at an equivalent water application rate of 300 1/ha, with addition of wetting agent and adjuvants (e.g. Mero, 1.5 1/ha; ammonium sulphate, 2 kg/ha)
After application, the test plants were kept in the greenhouse under good growth conditions.
Values in the table below are mean values of at least 2 replicates.

ZEAMA Abraxas = experiment: Tank-mix; post-emergence, crop damage with and without safener; conditions: for HER effect + SAF / HER effect: Final assessment; for HER effect: no safener
Procedure: (§1) Seeds of crops (spring wheat, TRZAS; spring barley, HORVS; maize, ZEAMA) were placed in sandy loam soil in peat pots, covered with soil and cultivated in a greenhouse under good growth conditions. Two to three weeks after sowing, the test plants were treated at the 1 to 3-leaf stage. The herbicide/safener active compound combinations according to the invention, formulated as wettable powders or emulsion concentrates, and, in parallel tests, the correspondingly formulated individual active compounds were sprayed onto the green parts of the plants in various dosages using an amount of water of 300 1/ha (converted).
(§2) The pots were returned under good growing conditions in a glasshouse and a visual assessment of herbicidal effects was made at intervals from 1 to 3 weeks after herbicide application (DAT = days after treatment). Assessment was on a percentage basis in comparison with untreated control plants (0% = no injury, 100% = complete kill).

ZEAMA Sileno [2] = experiment: as above; conditions: for HER effect + SAF / HER effect: Final assessment; for HER effect: no safener
Procedure: as §1, §2

[3] = HER 8 g a.i./ha, cyprosulfamide 50 g a.i./ha
[4] = HER 32 g a.i./ha, cyprosulfamide 100 g a.i./ha
[5] = HER dose 8 g a.i./ha + cyprosulfamide 50 g a.i./ha tank-mix
[6] = HER dose 32 g a.i./ha + cyprosulfamide 100 g a.i./ha tank-mix

Structure (SMILES) | Reduction [%] (ZEAMA Sileno [1]; HER dose 32 g a.i./ha) | Reduction [Difference] (ZEAMA Sileno [1]; HER dose 32 g a.i./ha) | HER effect + SAF (crop damage with safener) (ZEAMA Sileno [1]; HER dose 32 g a.i./ha) [%] | HER effect (crop damage, herbicide without safener) (ZEAMA Sileno [1]; HER dose 32 g a.i./ha) [%] | Reduction [%] (ZEAMA Abraxas; [3]) | Reduction [Difference] (ZEAMA Abraxas; [3]) | Reduction [%] (ZEAMA Abraxas; [4]) | Reduction [Difference] (ZEAMA Abraxas; [4]) | Reduction [%] (ZEAMA Sileno [1]; HER dose 8 g a.i./ha) | Reduction [Difference] (ZEAMA Sileno [1]; HER dose 8 g a.i./ha) | HER effect + SAF (crop damage with safener) (ZEAMA Sileno [1]; HER dose 8 g a.i./ha) [%] | HER effect (crop damage, herbicide without safener) (ZEAMA Sileno [1]; HER dose 8 g a.i./ha) [%] | Reduction [%] (ZEAMA Sileno [2]; [3]) | Reduction [Difference] (ZEAMA Sileno [2]; [3]) | Reduction [%] (ZEAMA Sileno [2]; [4]) | Reduction [Difference] (ZEAMA Sileno [2]; [4]) | HER effect + SAF (ZEAMA Sileno [2]; [5]) [%] | HER effect (ZEAMA Sileno [2]; HER dose 8 g a.i./ha) [%] | HER effect + SAF (ZEAMA Sileno [2]; [6]) [%] | HER effect (ZEAMA Sileno [2]; HER dose 32 g a.i./ha) [%] | other results
C=CC1(C(=O)NC2C=CC(C(=O)O)C2)CC(c2cc(F)cc(F)c2)=NO1 (centres unmarked) [Example 1.58] | 64 | 45 | 25 | 70 | 87 | 54 | 68 | 65 | – | – | – | – | – | – | – | – | – | – | – | – | Reduction [%] (ZEAMA Sileno [1]; HER dose 2 g a.i./ha): 100%; Reduction [Difference] (ZEAMA Sileno [1]; HER dose 2 g a.i./ha): 20; HER effect + SAF (crop damage with safener) (ZEAMA Sileno [1]; HER dose 2 g a.i./ha): 0%; HER effect (crop damage, herbicide without safener) (ZEAMA Sileno [1]; HER dose 2 g a.i./ha): 20%; HER effect + SAF (ZEAMA Abraxas; [5]): 8%; HER effect (ZEAMA Abraxas; HER dose 8 g a.i./ha): 62%; HER effect + SAF (ZEAMA Abraxas; [6]): 30%; HER effect (ZEAMA Abraxas; HER dose 32 g a.i./ha): 95%
C=CC1(C(=O)NC2COC(C(=O)OC)C2)CC(c2cc(C)cc(F)c2)=NO1 (mixture of isomers) [Example 1.71] | 91 | 29 | 3 | 32 | 71 | 41 | 67 | 61 | – | – | – | – | – | – | – | – | – | – | – | – | HER effect + SAF (ZEAMA Abraxas; [5]): 17%; HER effect (ZEAMA Abraxas; HER dose 8 g a.i./ha): 58%; HER effect + SAF (ZEAMA Abraxas; [6]): 30%; HER effect (ZEAMA Abraxas; HER dose 32 g a.i./ha): 91%
C=CC1(C(=O)NC2C=C(C(=O)OCCOC)OC2)CC(c2cc(C)cc(F)c2)=NO1 (centres unmarked) [Example 1.89] | 88 | 22 | 3 | 25 | 100 | 30 | 67 | 30 | – | – | – | – | – | – | – | – | – | – | – | – | HER effect + SAF (ZEAMA Abraxas; [5]): 0%; HER effect (ZEAMA Abraxas; HER dose 8 g a.i./ha): 30%; HER effect + SAF (ZEAMA Abraxas; [6]): 15%; HER effect (ZEAMA Abraxas; HER dose 32 g a.i./ha): 45%
COC(=O)C1=CC(NC(=O)C2(C)CC(c3cc(F)cc(F)c3)=NO2)CC1 (centres unmarked) [Example 1.63] | 85 | 75 | 13 | 88 | – | – | – | – | 85 | 72 | 13 | 85 | 73 | 62 | 52 | 46 | 23 | 85 | 42 | 88 | Reduction [%] (ZEAMA Sileno [1]; HER dose 2 g a.i./ha): 100%; Reduction [Difference] (ZEAMA Sileno [1]; HER dose 2 g a.i./ha): 23; HER effect + SAF (crop damage with safener) (ZEAMA Sileno [1]; HER dose 2 g a.i./ha): 0%; HER effect (crop damage, herbicide without safener) (ZEAMA Sileno [1]; HER dose 2 g a.i./ha): 23%; Reduction [%] (ZEAMA Sileno [2]; HER 2 g a.i./ha, cyprosulfamide 50 g a.i./ha): 87%; Reduction [Difference] (ZEAMA Sileno [2]; HER 2 g a.i./ha, cyprosulfamide 50 g a.i./ha, damage without safener - damage with safener): 20; HER effect + SAF (ZEAMA Sileno [2]; HER dose 2 g a.i./ha + cyprosulfamide 50 g a.i./ha tank-mix): 3%; HER effect (ZEAMA Sileno [2]; HER dose 2 g a.i./ha, 0% = no injury, 100% = complete kill): 23%
C=CC1(C(=O)NC2COC(C(=O)OCc3ccc(OC)cc3)C2)CC(c2cc(C)cc(F)c2)=NO1 (mixture of isomers) [Example 1.86] | – | – | – | – | 84 | 27 | – | – | – | – | – | – | – | – | – | – | – | – | – | – | HER effect + SAF (ZEAMA Abraxas; [5]): 5%; HER effect (ZEAMA Abraxas; HER dose 8 g a.i./ha): 32%
C=CCOC(=O)C1CC(NC(=O)C2(C)CC(c3cc(F)cc(F)c3)=NO2)CO1 (mixture of isomers) [Example 1.75] | 89 | 78 | 10 | 88 | – | – | – | – | 100 | 73 | 0 | 73 | 62 | 45 | 66 | 58 | 28 | 73 | 30 | 88 | –
COC(=O)C1C=CC(NC(=O)C2(C)CC(c3cc(Cl)cc(C#N)c3)=NO2)C1 (mixture of isomers) [Example 1.23] | 96 | 67 | 3 | 70 | – | – | – | – | 100 | 50 | 0 | 50 | 60 | 30 | 67 | 47 | 20 | 50 | 23 | 70 | –
COCCOC(=O)C1C=CC(NC(=O)C2(C(F)(F)F)CC(c3cc(F)cc(C#N)c3)=NO2)C1 (centres unmarked) [Example 1.2] | 81 | 78 | 18 | 96 | – | – | – | – | 89 | 80 | 10 | 90 | 44 | 40 | 48 | 46 | 50 | 90 | 50 | 96 | –
C=CC1(C(=O)NC2COC(C(=O)OC)C2)CC(c2cc(F)cc(F)c2)=NO1 (centres unmarked) [Example 1.69] | 75 | 70 | 23 | 93 | – | – | – | – | 82 | 75 | 17 | 92 | 76 | 70 | 73 | 68 | 22 | 92 | 25 | 93 | –
CC1(C(=O)NC2C=CC(C(=O)OCCCl)C2)CC(c2cc(F)cc(F)c2)=NO1 (mixture of isomers) [Example 1.47] | – | – | – | – | – | – | 84 | 52 | – | – | – | – | – | – | – | – | – | – | – | – | HER effect + SAF (ZEAMA Abraxas; [6]): 10%; HER effect (ZEAMA Abraxas; HER dose 32 g a.i./ha): 62%
CCOC(=O)C1C=CC(NC(=O)C2(C(F)(F)F)CC(c3ccccc3)=NO2)C1 (centres unmarked) [Example 1.9] | 100 | 85 | 0 | 85 | – | – | – | – | 100 | 78 | 0 | 78 | 87 | 68 | 59 | 50 | 10 | 78 | 35 | 85 | –
